Patent US20060148674A1, “Therapeutic composition” (priority 2004, published 2006)

Tests used:
[1] = test system: human MCF-7 breast cancer; conditions: MCF-7 tumor system, scid mice; cited from earlier work
HL-60 leukemia = conditions: scid mice; a number of the animals without tumor at day 45; cited from earlier work
alpha/beta II = biological target: T1, alpha/beta II (Bos taurus, UniProt Q6B856); conditions: cited from earlier work
T1 construct: from tissue; host or cells: bovine cerebra

alpha/beta IV = conditions: cited from earlier work
alpha/beta III = biological target: T2, alpha/beta III (Bos taurus, UniProt Q2T9S0); conditions: cited from earlier work
T2 construct: from tissue; host or cells: bovine brain (cerebra)

[2] = test system: colon tumors of min mouse; conditions: in the diet at 250 ppm, cited from earlier work
[3] = biological target: T3, thioredoxin reductase/thioredoxin (Homo sapiens, UniProt Q16881); conditions: cited from earlier work
T3 sequence (Q16881 1-499 isoform Q16881-5): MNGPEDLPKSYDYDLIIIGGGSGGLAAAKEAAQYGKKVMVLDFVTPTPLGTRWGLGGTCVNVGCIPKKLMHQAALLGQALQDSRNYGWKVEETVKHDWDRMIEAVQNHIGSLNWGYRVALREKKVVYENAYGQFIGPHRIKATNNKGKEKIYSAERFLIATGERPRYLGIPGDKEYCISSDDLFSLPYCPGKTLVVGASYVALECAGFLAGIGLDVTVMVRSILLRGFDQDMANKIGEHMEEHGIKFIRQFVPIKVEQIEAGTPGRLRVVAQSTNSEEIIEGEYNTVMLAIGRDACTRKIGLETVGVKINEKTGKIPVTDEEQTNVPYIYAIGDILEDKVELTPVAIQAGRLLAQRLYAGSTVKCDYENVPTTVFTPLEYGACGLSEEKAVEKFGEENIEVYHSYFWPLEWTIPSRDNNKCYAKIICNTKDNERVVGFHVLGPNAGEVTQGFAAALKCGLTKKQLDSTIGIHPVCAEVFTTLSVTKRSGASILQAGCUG

thioredoxin reductase = biological target: T4, thioredoxin reductase (Homo sapiens, UniProt Q16881); conditions: cited from earlier work
T4 sequence (Q16881 1-499 isoform Q16881-5): T3 sequence (Q16881 1-499 isoform Q16881-5)

[4] = 2.5 mg/kg, mice; cited from earlier work
[5] = biological target: T5, thioredoxin reductase and thioredoxin (Homo sapiens, UniProt P10599+Q16881); conditions: cited from earlier work
T5 sequence (Q16881 151-649 limits assumed): T3 sequence (Q16881 1-499 isoform Q16881-5)
T5 sequence (P10599 1-105): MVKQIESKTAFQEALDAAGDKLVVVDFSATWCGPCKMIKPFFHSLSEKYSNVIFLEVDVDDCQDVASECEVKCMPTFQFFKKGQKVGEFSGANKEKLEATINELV

alpha/beta III dimer = alpha/beta III dimer (Bos taurus, UniProt Q2T9S0); conditions: compared with alpha/beta II and alpha/beta IV dimers; cited from earlier work
[6] = test system: BT-549 breast cancer cell line; experiment: drug resistance of breast cancer cell line; format: cell-based; conditions: BT-549 compared with MCF-7
brain tubulin = test system: brain tubulin; parameters: dose or concentration left out as unconfirmed; conditions: cited from earlier work
erythrocyte tubulin = biological target: T6, erythrocyte tubulin (Gallus gallus, UniProt P09207); parameters: dose or concentration left out as unconfirmed; conditions: cited from earlier work
T6 construct: from tissue; host or cells: chicken erythrocytes
T6 sequence (P09207 whole entry): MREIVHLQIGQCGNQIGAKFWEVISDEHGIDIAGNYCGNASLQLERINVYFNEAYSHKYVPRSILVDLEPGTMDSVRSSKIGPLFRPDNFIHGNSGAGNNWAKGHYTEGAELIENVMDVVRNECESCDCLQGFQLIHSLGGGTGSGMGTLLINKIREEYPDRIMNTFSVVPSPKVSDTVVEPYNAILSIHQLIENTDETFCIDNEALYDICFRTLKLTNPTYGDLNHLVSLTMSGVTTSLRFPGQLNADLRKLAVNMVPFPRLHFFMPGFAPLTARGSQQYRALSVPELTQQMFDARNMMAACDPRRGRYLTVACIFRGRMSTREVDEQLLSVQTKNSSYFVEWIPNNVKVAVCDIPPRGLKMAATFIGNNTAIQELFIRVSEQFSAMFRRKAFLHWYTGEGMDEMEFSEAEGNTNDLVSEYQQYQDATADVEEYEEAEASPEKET

T1 sequence (Q6B856 whole entry): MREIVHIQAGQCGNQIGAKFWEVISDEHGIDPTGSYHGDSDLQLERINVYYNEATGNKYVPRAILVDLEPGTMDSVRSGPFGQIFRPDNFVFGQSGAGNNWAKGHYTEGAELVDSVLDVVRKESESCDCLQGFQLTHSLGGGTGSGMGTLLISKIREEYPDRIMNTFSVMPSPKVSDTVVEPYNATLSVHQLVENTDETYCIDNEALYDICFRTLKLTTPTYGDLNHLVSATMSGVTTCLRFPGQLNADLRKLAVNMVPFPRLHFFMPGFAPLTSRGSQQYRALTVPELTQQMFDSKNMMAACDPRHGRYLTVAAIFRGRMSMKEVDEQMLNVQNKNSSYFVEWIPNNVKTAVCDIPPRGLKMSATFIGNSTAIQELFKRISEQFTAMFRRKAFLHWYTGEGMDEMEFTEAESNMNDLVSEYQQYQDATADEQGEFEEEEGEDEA
T1 sequence (P81947 whole entry partner): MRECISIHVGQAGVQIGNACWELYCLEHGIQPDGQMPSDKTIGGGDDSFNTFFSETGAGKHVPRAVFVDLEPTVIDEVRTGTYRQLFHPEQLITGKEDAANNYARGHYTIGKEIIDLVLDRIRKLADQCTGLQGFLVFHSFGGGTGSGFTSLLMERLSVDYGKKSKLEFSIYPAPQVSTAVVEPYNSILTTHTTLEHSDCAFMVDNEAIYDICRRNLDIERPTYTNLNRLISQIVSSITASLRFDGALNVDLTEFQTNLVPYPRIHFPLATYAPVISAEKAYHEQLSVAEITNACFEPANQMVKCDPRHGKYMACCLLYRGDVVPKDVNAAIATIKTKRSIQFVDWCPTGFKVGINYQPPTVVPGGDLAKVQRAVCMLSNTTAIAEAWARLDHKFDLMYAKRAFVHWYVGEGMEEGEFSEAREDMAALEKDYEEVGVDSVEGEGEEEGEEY
T2 sequence (Q2T9S0 whole entry): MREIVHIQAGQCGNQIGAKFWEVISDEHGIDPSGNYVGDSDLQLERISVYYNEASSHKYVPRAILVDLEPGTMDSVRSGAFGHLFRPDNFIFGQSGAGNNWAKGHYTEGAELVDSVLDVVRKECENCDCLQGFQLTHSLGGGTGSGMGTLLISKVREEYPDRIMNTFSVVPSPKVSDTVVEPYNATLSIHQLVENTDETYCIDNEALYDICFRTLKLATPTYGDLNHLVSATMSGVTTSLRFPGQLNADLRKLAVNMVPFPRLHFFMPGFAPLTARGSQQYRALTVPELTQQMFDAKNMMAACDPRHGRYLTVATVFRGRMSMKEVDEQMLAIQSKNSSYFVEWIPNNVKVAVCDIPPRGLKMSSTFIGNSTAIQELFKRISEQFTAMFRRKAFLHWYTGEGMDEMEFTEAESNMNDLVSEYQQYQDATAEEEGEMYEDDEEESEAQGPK
T2 sequence (P81947 whole entry partner): as the sequence (P81947 whole entry partner) above
Chain of alpha/beta III dimer (Q2T9S0 whole entry): as the sequence (Q2T9S0 whole entry) above
Chain of alpha/beta III dimer (P81947 whole entry partner, looked up): as the sequence (P81947 whole entry partner) above

In the case of `c1ccc(CSSc2ncc[nH]2)cc1` [DLK-36, benzyl-2-imidazolyl disulfide], the tumor inhibition [1] is given as 65% and the “antitumor activity against HL-60 leukemia” value (HL-60 leukemia) is given as “showed antitumor activity”.
In the case of `COc1cc(OC)c(Cl)c(-n2c(-c3ccccc3)cc(=O)c(C)c2-c2ccc(F)cc2)c1` [IKP-104], the “apparent dissociation constant for the high-affinity site (Kd1)” value (“apparent dissociation constant” below) (alpha/beta II) is given as “lower than that of unfractionated tubulin”, the “apparent dissociation constant” value (alpha/beta IV) is given as “greater than those of unfractionated tubulin, alpha/beta II, or alpha/beta III” and the “apparent dissociation constant” value (alpha/beta III) is given as “lower than that of unfractionated tubulin”.
In the case of `CCC(C)SSc1ncc[nH]1` (centres unmarked) [IV-2, 1-methylpropyl 2-imidazolyl disulfide], the “size of remaining tumors” value ([2]; p<0.001 compared to control) is given as “significant reduction”, the “reduction of the number of tumors in the colon” value ([2]; p=0.0160) is given as 70% and the tumor inhibition [1] is given as 98%. For the same compound, the “antitumor activity against HL-60 leukemia” value (HL-60 leukemia) was “showed antitumor activity”.
For `CCCCCCCC(=O)OC1C2C(CC1(C)C)C(=O)C13OC1C(=O)C1(CO1)C23C` (centres unmarked) [NSC 163027], the “activity in the thioredoxin reductase/thioredoxin-dependent insulin assay” value [3] is given as “active” and the “inhibition of thioredoxin reductase alone” value (thioredoxin reductase) is given as “did not inhibit thioredoxin reductase alone”.
In the case of `Cc1cccc2c1c1ccc3c(c1n2C)C(=O)C=CC3=O` [NSC 645330], the “activity in the thioredoxin reductase/thioredoxin-dependent insulin assay” value [3] is given as “active” and the “inhibition of thioredoxin reductase alone” value (thioredoxin reductase) is given as “did not inhibit thioredoxin reductase alone”.
For `O=[N+]([O-])C(=C(Sc1ccccc1)Sc1ccccc1)C(Cl)=C(Cl)Cl` [NSC 665103], the “activity in the thioredoxin reductase/thioredoxin-dependent insulin assay” value [3] is listed as “active” and the “inhibition of thioredoxin reductase alone” value (thioredoxin reductase) is listed as “did not inhibit thioredoxin reductase alone”.
For `CC1=C(CO)C2=C(C)C3(CC3)[C@@](C)(O)C(=O)C2=C1` [irofulven], the tolerability [4] is given as “tolerable” and the “inhibition of thioredoxin reductase and thioredoxin” value [5] is given as “selectively inhibit both thioredoxin reductase and thioredoxin”.
In the case of `CC(=O)O[C@H]1C(=O)[C@@]2(C)[C@H]([C@H](OC(=O)c3ccccc3)[C@]3(O)C[C@H](OC(=O)[C@H](O)[C@@H](NC(=O)c4ccccc4)c4ccccc4)C(C)=C1C3(C)C)[C@]1(OC(C)=O)CO[C@@H]1C[C@@H]2O` [paclitaxel], the “interaction of alpha/beta III dimer with ligand” value (alpha/beta III dimer) is given as “much less strongly” and the “resistance of cell line to drug” value [6] is given as “resistant”.
For `CC[C@]1(O)C[C@@H]2CN(CCc3c([nH]c4ccccc34)[C@@](C(=O)OC)(c3cc4c(cc3OC)N(C)[C@H]3[C@@](O)(C(=O)OC)[C@H](OC(C)=O)[C@]5(CC)C=CCN6CC[C@]43[C@@H]65)C2)C1` [vinblastine], the “brain tubulin aggregated into spirals” value (brain tubulin) is given as “About 42%”, the “erythrocyte tubulin formed spirals” value (erythrocyte tubulin) is given as 74% and the “resistance of cell line to drug” value [6] is given as “resistant”.
With cryptophycin the “resistance of cell line to drug” value [6] was “resistant”.
